Among the data in patent US20250011288A1 (BRISTOL-MYERS SQUIBB COMPANY, priority 2021, published 2025) are EC50 values, retold here.

This assay deals with T1, human RXFP1 (Homo sapiens, UniProt Q9HBX9).
T1 construct: expressed in transfected cells
T1 sequence (Q9HBX9 1-757): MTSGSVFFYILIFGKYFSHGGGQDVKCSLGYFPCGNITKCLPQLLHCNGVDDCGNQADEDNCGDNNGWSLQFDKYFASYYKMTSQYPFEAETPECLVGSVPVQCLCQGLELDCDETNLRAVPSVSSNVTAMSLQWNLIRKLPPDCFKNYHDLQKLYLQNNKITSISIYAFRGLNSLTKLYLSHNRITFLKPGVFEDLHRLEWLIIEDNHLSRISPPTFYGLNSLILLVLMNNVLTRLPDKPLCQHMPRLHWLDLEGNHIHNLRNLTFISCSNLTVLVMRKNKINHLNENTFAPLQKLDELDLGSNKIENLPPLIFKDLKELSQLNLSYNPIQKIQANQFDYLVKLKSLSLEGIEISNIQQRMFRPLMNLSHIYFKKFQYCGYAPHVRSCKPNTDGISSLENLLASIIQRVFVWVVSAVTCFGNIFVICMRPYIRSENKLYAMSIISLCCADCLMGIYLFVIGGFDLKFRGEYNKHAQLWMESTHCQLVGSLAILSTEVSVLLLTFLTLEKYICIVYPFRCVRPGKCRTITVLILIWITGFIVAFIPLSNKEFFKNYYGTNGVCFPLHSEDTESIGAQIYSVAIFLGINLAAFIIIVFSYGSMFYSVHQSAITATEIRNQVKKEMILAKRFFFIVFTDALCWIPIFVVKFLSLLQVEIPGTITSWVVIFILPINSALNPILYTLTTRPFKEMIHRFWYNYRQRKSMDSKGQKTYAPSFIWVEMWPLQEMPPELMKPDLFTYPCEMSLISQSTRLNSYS
The experiment in a line: human RXFP1 (hRXFP1) HEK293 cAMP assay (HTRF). It is filed as cell-based. Particulars: HEK293 cells stably expressing human RXFP1, 30 min at room temperature. The procedure: RXFP1 Cyclic Adenosine Monophosphate (cAMP) Assays. […] Cells were dissociated and suspended in assay buffer. The assay buffer was HBSS buffer (with calcium and magnesium) containing 20 mM HEPES, 0.05% BSA, and 0.5 mM IBMX. Cells (3000 cells per well, except 1500 cell per well for HEK293 cells stably expressing human RXFP1) were added to 384-well Proxiplates (Perkin-Elmer). Cells were immediately treated with test compounds in DMSO (2% final) at final concentrations in the range of 0.010 nM to 50 µM. Cells were incubated for 30 min at room temperature. The level of intracellular cAMP was determined using the HTRF HiRange cAMP assay reagent kit (Cisbio) according to manufacturer's instructions. Solutions of cryptate conjugated anti-cAMP and d2 fluorophore-labelled cAMP were made in a supplied lysis buffer separately. Upon completion of the reaction, the cells were lysed with equal volume of the d2-cAMP solution and anti-cAMP solution. […] The potency and activity of a compound to […] cAMP production was then determined by fitting to a 4-parametric logistic equation from a plot of cAMP level versus compound concentrations.
A general note: cAMP levels reflect the balance of adenylyl cyclase and phosphodiesterase activity.
One may read the EC50 as the midpoint of the concentration-response curve. Read a low EC50 as a more potent agent. Turning to `COc1cnc(-c2cc([C@H](OC(=O)NC3CCC3)C(F)(F)F)ccc2F)nc1C(=O)N[C@@H]1C2CCC(/C2=C/C(F)(F)F)[C@@H]1C(=O)Nc1ccc(F)c(C(F)(F)F)c1` (stereo partly drawn) [Example 37, (1S)-2,2,2-trifluoro-1-14-fluoro-3-(4-{[(2R,3S,7Z)-3-{[4-fluoro-3-(trifluoromethyl)phenyl]carbamoyl}-7-(2,2,2-trifluoroethylidene)bicyclo[2.2.1]heptan-2-yl]carbamoyl}-5-methoxypyrimidin-2-yl)phenyl]ethyl N-cyclobutylcarbamate], the EC50 was found to be 95 nM.
As for `COc1ncc(C2=NOC3CC(CO)CC23)cc1C(=O)N[C@H]1[C@@H](C(=O)Nc2ccc(F)c(C(F)(F)F)c2)[C@H]2CC[C@@H]1/C2=C\C1CCCC1` (stereo partly drawn) [Example 172, N-[(1R,2R,3S,4R, 7Z)-7-(cyclopentyl-methylidene)-3-{[4-fluoro-3-(trifluoromethyl)phenyl]carbamoyl}bicyclo[2.2.1]heptan-2-yl]-5-[5-(hydroxymethyl) 3aH,4H,5H,6H, 6aH-cyclopenta[d][1,2]oxazol-3-yl]-2-methoxypyridine-3-carboxamide], the figure is 4.3 nM; as for `COc1ncc(-c2cc([C@H](OC(=O)NC3CC3)C(F)(F)F)ccc2F)cc1C(=O)N[C@H]1[C@@H](C(=O)Nc2ccc(F)c(C(F)(F)F)c2)[C@H]2CC[C@@H]1/C2=C\C1CC(F)(F)C1` [Example 167, (1S)-1-[3-(5-{[(1R,2R,3S,4R, 7Z)-7-[(3,3-difluorocyclobutyl)methylidene]-3-{[4-fluoro-3-(trifluoromethyl)phenyl]carbamoyl}bicyclo[2.2.1]heptan-2-yl]carbamoyl}-6-methoxypyridin-3-yl)-4-fluorophenyl]-2,2,2-trifluoroethyl N-cyclopropyl-carbamate], 1.7 nM; as for `COc1ncc(C2=NOC3CC(C(C)O)CC23)cc1C(=O)N[C@H]1[C@@H](C(=O)Nc2ccc(F)c(C(F)(F)F)c2)[C@H]2CC[C@@H]1/C2=C\C1CC1` (stereo partly drawn) [Example 110, N-((1R,2R,3S, 4R,Z)-7-(cyclopropyl-methylene)-3-((4-fluoro-3-(trifluoromethyl)phenyl)carbamoyl)bicyclo[2.2.1]heptan-2-yl)-5-(5-(1-hydroxyethyl)-3a,5,6,6a-tetrahydro-4H-cyclopenta[d]isoxazol-3-yl)-2-methoxy-nicotinamide], 3.5 nM.
Then `CC(O)C1CC2ON=C(c3cc4c(c(C(=O)N[C@H]5[C@@H](C(=O)Nc6ccc(F)c(C(F)(F)F)c6)[C@H]6CC[C@@H]5/C6=C\C5CC5)c3)OC(C)(C)C4)C2C1` (stereo partly drawn) [Example 175, N-[(1R,2R,3S,4R, 7Z)-7-(cyclopropyl-methylidene)-3-{[4-fluoro-3-(trifluoromethyl)phenyl]carbamoyl}bicyclo[2.2.1]heptan-2-yl]-5-[5-(1-hydroxyethyl)-3aH,4H,5H,6H, 6aH-cyclopenta[d][1,2]oxazol-3-yl]-2,2-dimethyl-2,3-dihydro-1-benzofuran-7-carboxamide], with 7.8 nM; and `COc1ncc(C2=NOC3CC(CO)CC23)cc1C(=O)N[C@H]1[C@@H](C(=O)Nc2ccc(F)c(C(F)(F)F)c2)[C@H]2CC[C@@H]1/C2=C\c1cscn1` (stereo partly drawn) [Example 96, N-((1R,2R,3S,4R,Z)-3-((4-fluoro-3-(trifluoromethyl)phenyl)carbamoyl)-7-(thiazol-4-ylmethylene)bicyclo[2.2.1]heptan-2-yl)-5-(5-(hydroxymethyl)-3a,5,6,6a-tetrahydro-4H-cyclopenta[d]isoxazol-3-yl)-2-methoxy-nicotinamide], with 1.4 nM; and `O=C(N[C@@H]1C2CCC(/C2=C/C(F)(F)F)[C@@H]1C(=O)Nc1ccc(F)c(C(F)(F)F)c1)c1cc(=O)c2ccccc2o1` (stereo partly drawn) [Example 16, N-[(2R,3S,7Z)-3-{[4-fluoro-3-(trifluoromethyl)phenyl]carbamoyl}-7-(2,2,2-trifluoroethylidene)bicyclo[2. 2.1]heptan-2-yl]-4-oxo-4H-chromene-2-carboxamide], with 3800 nM.
For the compound `COc1ncc(-c2cc([C@H](OC(=O)Nc3ccccc3)C(F)(F)F)ccc2F)cc1C(=O)N[C@@H]1C2CCC(/C2=C/C2CC2)[C@@H]1C(=O)Nc1ccc(F)c(C(F)(F)F)c1` (stereo partly drawn) [Example 186, (1S)-1-[3-(5-{[(2R,3S,7Z)-7-(cyclopropyl-methylidene)-3-{[4-fluoro-3-(trifluoromethyl)phenyl]carbamoyl}bicyclo[2.2.1]heptan-2-yl]carbamoyl}-6-methoxypyridin-3-yl)-4-fluorophenyl]-2,2,2-trifluoroethyl N-phenylcarbamate], a half-maximal effect (EC50) was put at 0.8 nM.
Compound `COc1ncc(COC2(CO)CC2)cc1C(=O)N[C@H]1[C@@H](C(=O)Nc2ccc(F)c(C(F)(F)F)c2)[C@H]2CC[C@@H]1/C2=C\C1CC1` [Example 73, N-[(1R,2R,3S, 4R,7Z)-7-(cyclopropyl-methylidene)-3-{[4-fluoro-3-(trifluoromethyl)phenyl]carbamoyl}bicyclo[2.2.1]heptan-2-yl]-5-{[1-(hydroxymethyl)cyclopropoxy]methyl}-2-methoxypyridine-3-carboxamide] showed an EC50 of 24 nM.
Then `O=C(N[C@@H]1C2CCC(/C2=C/C(F)(F)F)[C@@H]1C(=O)Nc1ccc(F)c(C(F)(F)F)c1)c1cc(Br)cc2c1OCC2` (stereo partly drawn) [Example 58, 5-bromo-N-[(2R,3S,7Z)-3-{[4-fluoro-3-(trifluoromethyl)phenyl]carbamoyl}-7-(2,2,2-trifluoro-ethylidene)bicyclo[2. 2.1]heptan-2-yl]-2,3-dihydro-1-benzofuran-7-carboxamide], with 3000 nM.
Consider `COc1cc2c(cc1C(=O)N[C@H]1[C@@H](C(=O)Nc3ccc(F)c(C(F)(F)F)c3)[C@H]3CC[C@@H]1/C3=C\C1CC1)CCN(CCCO)C2` [Example 90, N-((1R,2R,3S,4R,Z)-7-(cyclopropylmethylene)-3-((4-fluoro-3-(trifluoromethyl)phenyl)carbamoyl)bicyclo[2.2.1]heptan-2-yl)-2-(3-hydroxypropyl)-7-methoxy-1,2,3,4-tetrahydroisoquinoline-6-carboxamide], for which the response was half-maximal at 2400 nM (EC50).
As for `COc1ccc(-c2cc(C(=O)O)ccc2F)nc1C(=O)N[C@@H]1C2CCC(C2=C(C)C)[C@@H]1C(=O)Nc1ccc(F)c(C(F)(F)F)c1` (stereo partly drawn) [Example 23, 4-Fluoro-3-(6-{[(2R,3S)-3-{[4-fluoro-3-(trifluoromethyl)phenyl]carbamoyl}-7-(propan-2-ylidene)bicyclo [2.2.1]heptan-2-yl]carbamoyl}-5-methoxypyridin-2-yl)benzoic acid], the figure is 2400 nM; as for `COc1ncc(C2=NOC3CC(C(OC(=O)NC4CCC4)C(F)(F)F)CC23)cc1C(=O)N[C@@H]1C2CCC(/C2=C/C2CC2)[C@@H]1C(=O)Nc1ccc(F)c(C(F)(F)F)c1` (stereo partly drawn) [Example 171, 1-[3-(5-{[(2R,3S,7Z)-7-(cyclopropyl-methylidene)-3-{[4-fluoro-3-(trifluoromethyl)phenyl]carbamoyl}bicyclo[2.2.1]heptan-2-yl]carbamoyl}-6-methoxypyridin-3-yl)-3aH,4H,5H,6H, 6aH-cyclopenta[d][1,2]oxazol-5-yl]-2,2,2-trifluoroethyl N-cyclobutyl-carbamate], 7.9 nM; as for `CC1(C)Cc2cc(C3=NOC4CC(CO)CC34)cc(C(=O)N[C@@H]3C4CCC(/C4=C/C4CC4)[C@@H]3C(=O)Nc3ccc(F)c(C(F)(F)F)c3)c2O1` (stereo partly shown) [Example 144], 2 nM.
Then `COc1ncc(C2=NOC3CC(CO)CC23)cc1C(=O)N[C@H]1[C@@H](C(=O)N[C@H](C)C2(C)CC2(F)F)[C@H]2CC[C@@H]1/C2=C\C(F)(F)F` (stereo partly drawn) [Example 118, N-((1R,2R,3S,4R,Z)-3-(((1R)-1-(2,2-difluoro-1-methylcyclopropyl)ethyl)carbamoyl)-7-(2,2,2-trifluoroethylidene)bicyclo[2.2.1]heptan-2-yl)-5-(5-(hydroxymethyl)-3a,5,6,6a-tetrahydro-4H-cyclopenta[d]isoxazol-3-yl)-2-methoxynicotinamide], with 4 nM.
Then `COc1nn(-c2cccc(C(=O)O)c2)cc1C(=O)N[C@@H]1C2CCC(/C2=C/c2ccccc2)[C@@H]1C(=O)Nc1ccc(F)c(C(F)(F)F)c1` (stereo partly drawn) [Example 54, 3-(4-{[(2R,3S,7Z)-3-{[4-fluoro-3-(trifluoromethyl)phenyl]carbamoyl}-7-(phenylmethylidene)bicyclo [2.2.1]heptan-2-yl]carbamoyl}-3-methoxy-1H-pyrazol-1-yl)benzoic acid], with 1200 nM.
